What all share (assay): NCI-60 cell line screen, 48 h
Experiment [1] relates to SF-539.
The test system of experiment [2] is MOLT-4.
For experiment [3], the system named is M14.
Experiment [4] deals with IGROV-1.
In experiment [5] the test system is SK-MEL-28.
For experiment [6], the system named is COLO 205.
Experiment [7] concerns OVCAR-4.
Experiment [8] deals with OVCAR-8.
Experiment [9] has as its system SN12C.
The subject of experiment [10] is HOP-62.
The subject of experiment [11] is EKVX.
Experiment [12] concerns Malme-3M.
Experiment [13] deals with UO-31.
For experiment [14], the system named is SNB-75.
Experiment [15] deals with SW-620.
Experiment [16] has as its system OVCAR-3.

Structures are written as SMILES.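 In this assay, cells in 96-well plates receive the compound at five concentrations for 48 hours. Endpoints are linearly interpolated between the surrounding concentrations. GI50 = concentration required for 50% inhibition of growth.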 The source made the active and inactive calls. Cut-off read from the data, not from the text of the source: active = GI50 up to about 1.1 µM and inactive = higher.

Consider `Oc1cc(-c2ccc3c(c2)OCO3)nc2cc3c(cc12)OCO3`, for which the GI50 in experiment [1] is 23 µM (inactive); in [2] it was 59.8 µM (inactive); in experiment [3], 27.9 µM (inactive); in experiment [4], > 100 µM (inactive); in [5], 37.4 µM (inactive); in experiment [6], 31.5 µM (inactive). Moreover, the GI50 in experiment [7] was > 100 µM (inactive); in experiment [8] it was 25.7 µM (inactive); in experiment [9], 39.5 µM (inactive); in experiment [10], 22.9 µM (inactive); in experiment [11], > 100 µM (inactive); in experiment [12], 21.2 µM (inactive). Besides, the GI50 in [13] was > 100 µM (inactive); in [14] it was 1.01 µM (active); in [15], 35.8 µM (inactive).
With `COc1ccc(C(O)/C(=C/n2ccnc2)c2ccccc2)cc1OC` (centres undefined), the GI50 in experiment [1], in [16], in experiment [2], in experiment [3], in experiment [4] and in experiment [5] was > 100 µM (inactive) throughout. The GI50 in experiment [6], in [7], in experiment [8], in experiment [9], in experiment [10] and in experiment [11] was > 100 µM (inactive) in each case. Also, the GI50 was > 100 µM (inactive) in [12], > 100 µM (inactive) in experiment [13], 49.4 µM (inactive) in experiment [14] and > 100 µM (inactive) in experiment [15].
Regarding `C=CCNC(=O)NCCCCC(NC(C)=O)C(=O)NCc1ccccc1` (centres undefined), the GI50 in [1], in [16], in experiment [2], in [3], in [4] and in [5] was > 100 µM (inactive) in each case. The GI50 in experiment [6], in [7], in experiment [8], in experiment [9], in experiment [10] and in experiment [11] was > 100 µM (inactive) in each case. Moreover, the GI50 in [12], in experiment [13], in experiment [14] and in [15] was > 100 µM (inactive) in each case.
Turning to `CN(C)CCCN1CCc2c([nH]c3ccccc23)C1c1cccnc1` (centres undefined), the GI50 in [1] is > 100 µM (inactive); in experiment [16], > 100 µM (inactive); in experiment [2], > 100 µM (inactive); in experiment [3], > 100 µM (inactive); in [4], > 100 µM (inactive); in [5], 80 µM (inactive). The GI50 in [6], in [7], in experiment [8], in experiment [9], in experiment [10] and in [11] was > 100 µM (inactive) each time. In addition, the GI50 in [12], in experiment [13], in experiment [14] and in experiment [15] was > 100 µM (inactive) throughout.
Turning to `N#C/C(=C1\SCC(=O)N1c1ccccc1)c1nc2ccccc2[nH]1`, the GI50 in [1], in experiment [16], in experiment [2], in [3], in [4] and in [5] was > 100 µM (inactive) each time. For the same compound, the GI50 in experiment [6], in experiment [7], in experiment [8], in experiment [9], in experiment [10] and in experiment [11] was > 100 µM (inactive) each time. Moreover, the GI50 in experiment [12], in [13], in experiment [14] and in experiment [15] was > 100 µM (inactive) in each case.
For the compound `Cc1ccc(NC(=O)CC/C(CC(=O)C(C)(C)C)=N\NC(=O)C[n+]2ccccc2)cc1C`, the GI50 in experiment [1] was > 100 µM (inactive); in experiment [16], > 100 µM (inactive); in experiment [2], 51.2 µM (inactive); in experiment [3] it was > 100 µM (inactive); in [4], > 100 µM (inactive); in [5] it was > 100 µM (inactive). In addition, the GI50 in experiment [6], in [7], in experiment [8], in experiment [9], in [10] and in experiment [11] was > 100 µM (inactive) throughout. For the same compound, the GI50 in experiment [12], in experiment [13], in experiment [14] and in experiment [15] was > 100 µM (inactive) in each case.
For `O=C(O)CNS(=O)(=O)c1ccc(NC(=O)CI)cc1`, the GI50 in [1] was 16.1 µM (inactive); in experiment [16] it was 24 µM (inactive); in [2] it was 12.1 µM (inactive); in experiment [3], 18.6 µM (inactive); in experiment [4], 26.5 µM (inactive); in experiment [5], 24.4 µM (inactive). Besides, the GI50 in [6] is 26.2 µM (inactive); in experiment [7], 18 µM (inactive); in experiment [8], 21.1 µM (inactive); in experiment [9], 32.5 µM (inactive); in experiment [11] it was 32.7 µM (inactive); in [12], 18.8 µM (inactive). In addition, the GI50 in experiment [13] is 20 µM (inactive); in experiment [14], 17.1 µM (inactive); in experiment [15], 13.2 µM (inactive).
As to `COP(=O)(OC)C(NC(=O)C(F)(F)F)(c1ccccc1)C(F)(F)F` (centres undefined), the GI50 in experiment [1], in experiment [16], in [2], in [3], in experiment [4] and in experiment [5] was > 100 µM (inactive) in each case. For the same compound, the GI50 in [6], in [7], in experiment [8], in [9], in experiment [10] and in experiment [11] was > 100 µM (inactive) in each case. Besides, the GI50 in [12], in experiment [13], in experiment [14] and in experiment [15] was > 100 µM (inactive) in each case.
On to `O=C1CC[C@@H](S(=O)(=O)c2ccccc2)[C@@H](/C=C/c2ccccc2)O1`, for which the GI50 in [1], in [16], in [2], in [3], in experiment [4] and in experiment [5] was > 100 µM (inactive) throughout. Also, the GI50 in [6], in experiment [7], in [8], in experiment [9], in experiment [10] and in experiment [11] was > 100 µM (inactive) throughout. Also, the GI50 in experiment [12], in [13], in experiment [14] and in experiment [15] was > 100 µM (inactive) throughout.
As to `COC(=O)C1=C(C[S+]([O-])c2ccc([N+](=O)[O-])cc2[N+](=O)[O-])C2C=CC1C2` (centres undefined), the GI50 in experiment [1] was 24.3 µM (inactive); in experiment [16], 23.1 µM (inactive); in experiment [2] it was 22.2 µM (inactive); in [3] it was 42.6 µM (inactive); in experiment [4], 64.9 µM (inactive); in experiment [6] it was 19.2 µM (inactive). In addition, the GI50 was 25.7 µM (inactive) in experiment [7]; 30.5 µM (inactive) in [8]; 23.7 µM (inactive) in [9]; > 100 µM (inactive) in experiment [10]; 23.6 µM (inactive) in [11]; 21.4 µM (inactive) in [12]. In addition, the GI50 in [13] is 22.4 µM (inactive); in [14], 25.3 µM (inactive); in experiment [15] it was 14.4 µM (inactive).
With `CC(=O)NC1=C(Nc2ccc(C)cc2)C(=O)c2ccccc2C1=O`, the GI50 in [1] was 16.2 µM (inactive); in experiment [16] it was 16.6 µM (inactive); in [2], 16.7 µM (inactive); in [3], 13.5 µM (inactive); in experiment [4], 17.7 µM (inactive); in [5], 17.6 µM (inactive). In addition, the GI50 was 18.7 µM (inactive) in [6]; 17.7 µM (inactive) in experiment [7]; 25 µM (inactive) in experiment [8]; 15.9 µM (inactive) in experiment [9]; 17.1 µM (inactive) in experiment [10]; > 75 µM (inactive) in experiment [11]. Further, the GI50 is 11.5 µM (inactive) in [12], 25 µM (inactive) in experiment [13], 11.6 µM (inactive) in experiment [14] and 13.5 µM (inactive) in [15].
Turning to `CC(C)(O)C(O)COc1c2c(cc3oc(=O)ccc13)OCO2` (centres undefined), the GI50 in experiment [1], in [16], in experiment [2], in experiment [3], in [4] and in [5] was > 100 µM (inactive) each time. Also, the GI50 in [6], in experiment [7], in experiment [8], in [9], in [10] and in experiment [11] was > 100 µM (inactive) in each case. Also, the GI50 was > 100 µM (inactive) in [12], > 100 µM (inactive) in experiment [13], 71.9 µM (inactive) in experiment [14] and > 100 µM (inactive) in experiment [15].

The values are drawn from ChEMBL document CHEMBL1201862, “PubChem BioAssay data set” (2004).
